Measured values from EP0102327A2, “Barbituric acid derivatives as anthelmintica” (CIBA-GEIGY AG, priority 1982, dated 1984).

Assays:
[1] = test system: Fasciola hepatica; assay: Test on sheep infected with Fasciola hepatica (count of liver flukes in the bile ducts after treatment); format: in vivo, Schafe; conditions: artificially infected sheep, single dose of suspension by stomach tube or rumen injection; 30 and 20 mg/kg Körpergewicht; necropsy 3-4 weeks after treatment
Text: Beispiel 16: Versuch an mit Fasciola hepatica infizierten Schafen
Der Wirkstoff wird in Form einer Suspension mit einer Magensonde oder durch Pansen-Injektion Schafen verabreicht, die vorher mit Fasciola hepatica künstlich infiziert wurden. Pro Versuch resp. pro Dosis werden 3 Tiere verwendet. Jedes Tier wird mit nur einer einzigen Dosis behandelt.
(§1) Eine erste Evaluierung erfolgt dadurch, dass die Anzahl der vor und nach der Behandlung im Kot der Schafe ausgeschiedenen Wurmeier verglichen werden.
Drei bis vier Wochen nach der Behandlung werden die Schafe getötet und seziert. Die Auswertung erfolgt durch das Auszählen der nach der Behandlung in den Gallengängen zurückgebliebenen Leberegel. Gleichzeitig und gleichartig infizierte aber unbehandelte Schafe dienen als Kontrolle resp. Vergleich. Der Unterschied der in den beiden Gruppen festgestellten Anzahl von Leberegeln ergibt den Wirkungsgrad des geprüften Wirkstoffs.
In diesem Versuch zeigen Wirkstoffe aus der Tabelle I bei Dosen von 30 und 20 mg/kg Körpergewicht stets eine mindestens 95%ige Wirksamkeit gegen Fasciola hepatica. Die Verbindungen Nr. 1, 2, 4, 5, 11, 12 und 13 zeigen jeweils vollständige Wirksamkeit (^= Abtötung 100 %).

[2] = test system: Nematoden wie Haemonchus concortus und Trichostrongylus colubriformis; assay: Test on sheep infected with nematodes (worm count in the intestine after treatment); format: in vivo, Schafe; conditions: nematode-infected sheep, single dose; at each of the doses 20, 10, 5 and 2 mg/kg; necropsy 7-10 days after treatment
Text: Beispiel 14: Versuch an mit Nematoden wie Haemonchus concortus und Trichostrongylus colubriformis infizierten Schafen
Der Wirkstoff wird in Form einer Suspension mit einer Magensonde oder durch Pansen-Injektion Schafen verabreicht, die vorher mit Nematoden wie Haemonchus concortus und Trichostrongylus colubriformis künstlich infiziert wurden. Pro Versuch resp. pro Dosis werden 1 bis 3 Tiere verwendet. Jedes Schaf wird mit nur einer einzigen Dosis behandelt.
as §1
Sieben bis zehn Tage nach der Behandlung werden die Schafe getötet und seziert. Die Auswertung erfolgt durch Auszählung der nach der Behandlung im Darm zurückbleibenden Würmer. Gleichzeitig und gleichartig infizierte aber unbehandelte Schafe dienen als Kontrolle resp. Vergleich.
Schafe, die mit einer Suspension eines Wirkstoffes aus der Tabelle I behandelt werden, zeigen im Vergleich zu unbehandelten, aber infizierten Vergleichsgruppen einen um mindestens 95 i reduzierten Nematodenbefall. Die Wirkungsdosis beträgt 20, 10, 5 und 2 mg/kg. Mit den Verbindungen Nr. 1, 2, 4, 11, 12 und 13 wird bei jeder der Dosen 100 % Wirkung erzielt.

Structure (SMILES) | Wirksamkeit gegen Fasciola hepatica (Abtötung) [1] [%] | Wirkung [2] [%]
CC(C)c1cc(Oc2ccc(C(F)(F)F)cc2)ccc1NC(=O)C1C(=O)N(C)C(=O)N(C)C1=O [compound 1] | 100 | 100
Cc1cc(Oc2ccc(C(F)(F)F)cc2)ccc1NC(=O)C1C(=O)N(C)C(=O)N(C)C1=O [compound 4] | 100 | 100
C=CCN1C(=O)C(C(=O)Nc2c(C)cc(Oc3ccc(C(F)(F)F)cc3)cc2C)C(=O)N(C)C1=O (stereo not shown) [compound 12] | 100 | 100
Cc1cc(Oc2ccc(C(F)(F)F)cc2)cc(C)c1NC(=O)C1C(=O)N(C)C(=O)N(C2CC2)C1=O (stereo not shown) [compound 11] | 100 | 100
Cc1cc(Oc2ccc(C(F)(F)F)cc2)cc(C)c1NC(=O)C1C(=O)N(C)C(=O)N(C)C1=O [compound 2] | 100 | 100
C=CCN1C(=O)C(C(=O)Nc2ccc(Oc3ccc(C(F)(F)F)cc3)cc2C)C(=O)N(C)C1=O (stereo not shown) [compound 5] | 100 | –
CC(C)c1cc(Oc2ccc(C(F)(F)F)cc2)ccc1NC(=O)C1C(=O)N(C)C(=O)N(C2CC2)C1=O (stereo not shown) [compound 13] | 100 | 100
